These molecules were tested on potassium ion channels (assay: Rubidium (Rb+) efflux assay in NGF-differentiated PC-12 cells, potassium channel modulation). Details: depolarization buffer with 15 mM KCl, 10 min at room temperature, read-out: ACTIVITY (EC50, compound's concentration for 50% of maximal Rb+ efflux).
Assay type: cell-based
Experimental: Compounds of this invention formula were evaluated as potassium channel modulators by measuring rhubidium release in the following assay.
Methods: PC-12 cells were grown at 37° C. and 5% CO2 in DMEM/F12 Medium supplemented with 10% horse serum, 5% fetal bovine serum, 2 mM glutamine, 100 U/ml penicillin, 100 U/ml streptomycin. They were plated in poly-D-lysine-coated 96-well cell culture microplates at a density of 40,000 cells/well and differentiated with 100 ng/ml NGF-7s for 2-5 days. For the assay, the medium was aspirated and the cells were washed once with 0.2 ml in wash buffer (25 mM Hepes, pH 7.4, 150 mM NaCl, 1 mM MgCl2, 0.8 mM NaH2PO4, 2 mM CaCl2). The cells were then loaded with 0.2 ml Rb^+ loading buffer (wash buffer plus 5.4 mM […], 5 mM glucose) and incubated at 37° C. for 2 h. Attached cells were quickly washed three times with buffer (same as Rb^+ loading buffer, but containing 5.4 mM KCl instead of RbCl) to remove extracellular Rb^+. Immediately following the wash, 0.2 ml of depolarization buffer (wash buffer plus 15 mM KCl) with or without compounds was added to the cells to activate efflux of potassium ion channels. After incubation for 10 min at room temperature, the supernatant was carefully removed and collected. Cells were lysed by the addition of 0.2 ml of lysis buffer (depolarization buffer plus 0.1% Triton X-100) and the cell lysates were also collected. If collected samples were not immediately analyzed for Rb^+ contents by atomic absorption spectroscopy (see below), they were stored at 4° C. without any negative effects on subsequent Rb^+ analysis.
The concentration of Rb^+ in the supernatants (Rb^+Sup) and cell lysates (Rb^+Lys) was quantified using an ICR8000 flame atomic absorption spectrometer (Aurora Biomed Inc., Vancouver, B.C.) under conditions defined by the manufacturer. One 0.05 ml samples were processed automatically from microtiter plates by dilution with an equal volume of Rb^+ sample analysis buffer and injection into an air-acetylene flame. The amount of Rb^+ in the sample was measured by absorption at 780 nm using a hollow cathode lamp as light source and a PMT detector. A calibration curve covering the range 0-5 mg/L Rb^+ in sample analysis buffer was generated with each set of plates. The percent Rb^+ efflux (F) was defined by F=[Rb^+sup/(Rb^+sup+Rb^+Lys)]×100%.
The effect (E) of a compound was defined by: E=[(Fc−Fb)/(Fs−Fb)]×100% where the Fc is the efflux in the presence of compound in depolarization buffer, Fb is the efflux in basal buffer, and Fs is the efflux in depolarization buffer, and Fc is the efflux in the presence of compound in depolarization buffer. The effect (E) and compound concentration relationship was plotted to calculate an EC50 value, a compound's concentration for 50% of maximal Rb^+ efflux. Legend: A: EC50=1 nM-50 nM; B: EC50=50 nM-100 nM; C: EC50=100-200 nM.

Compound	EC50
Cc1cc(N2CCc3cc(C(F)(F)F)ccc3C2)nc(C)c1NC(=O)CC(C)(C)C	0.001 to 0.05 µM
Cc1cc(N2CCc3cc(F)ccc3C2)nc(C)c1NC(=O)CC(C)(C)C	0.001 to 0.05 µM
Cc1cc(N2CCc3ccccc3C2)nc(C)c1NC(=O)CC(C)(C)C	0.001 to 0.05 µM
Cc1nc(N2CCc3ccccc3C2)nc(C)c1NC(=O)CC(C)(C)C	0.05 to 0.1 µM
COc1nc(N2CCc3ccccc3C2)nc(OC)c1NC(=O)CC(C)(C)C	0.001 to 0.05 µM
COc1nc(N2CCc3cc(F)ccc3C2)nc(OC)c1NC(=O)CC(C)(C)C	0.001 to 0.05 µM

Reference: patent US8367684B2, “Derivatives of 4-(N-azacycloalkyl) anilides as potassium channel modulators” (Valeant Pharmaceuticals International, priority 2007, dated 2013)
